Patent publication US6479435B1, “Diaryl ethers and processes for their preparation and herbicidal and desiccant compositions containing them” (ISK Americas Incorporated, priority 1997, dated 2002)

Assays:
Type in all cases: in vivo
[1] = test system: redroot pigweed (Amaranthus retroflexus, AMARE); assay: Post-emerge greenhouse herbicide test, phytotoxicity rating; conditions: 14 days after application
Outline: (§1)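 Scores use a 0 (no damage) to 100 (complete kill) scale, taken 14 days after a foliar spray. Acetone solutions with 0.25% v/v non-ionic surfactant were applied by track sprayer at 187 l/ha and 63-1000 g ai/ha to bottom-watered 2-3 leaf plants.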

[2] = test system: Johnsongrass (Sorghum halepense, SORHA); assay: as above; conditions: 14 days after application
Outline: as §1

[3] = test system: green foxtail (Setaria viridis, SETVI); assay: as above; conditions: 14 days after application
Outline: as §1

[4] = test system: large crabgrass (Digitaria sanguinalis, DIGSA); assay: as above; conditions: 14 days after application
Outline: as §1

[5] = test system: sicklepod (Cassia obtusifolia, CASOB); assay: as above; conditions: 14 days after application
Outline: as §1

[6] = test system: velvetleaf (Abutilon theophrasti, ABUTH); assay: as above; conditions: 14 days after application
Outline: as §1

[7] = test system: barnyardgrass (Echinochloa crusgalli, ECHCG); assay: as above; conditions: 14 days after application
Outline: as §1

[8] = test system: lambsquarters (Chenopodium album, CHEAL); assay: as above; conditions: 14 days after application
Outline: as §1

[9] = test system: ivyleaf morningglory (Ipomoea hederacea, IPOHE); assay: as above; conditions: 14 days after application
Outline: as §1

[10] = test system: common ragweed (Ambrosia artemisiifolia L., AMBEL); assay: as above; conditions: 14 days after application
Excerpt: A standard greenhouse herbicide activity screening system was used to evaluate the herbicidal efficacy and crop safety of these test compounds. Six broadleaf weed species including redroot pigweed (Amaranthus retroflexus, AMARE), velvetleaf (Abutilon theophrasti, ABUTH), sicklepod (Cassia obtusifolia, CASOB), ivyleaf morningglory (Ipomoea hederacea, IPOHE), lambsquarters (Chenopodium album, CHEAL) and common ragweed (Ambrosia artemisiifolia L., AMBEL) were used as test species. Four grass weed species including green foxtail (Setaria viridis, SETVI), barnyardgrass (Echinochloa crusgalli, ECHCG), Johnsongrass (Sorghum halepense, SORHA), and large crabgrass (Digitaria sanguinalis, DIGSA) were also used. In addition, three crop species, field corn (Zea mays L., var. Dekalb 535, CORN), soybean (Glycine max L., var. Pella 86, SOY), and upland rice (Oryza sp., var.Tebonnet, RICE) were included.
All test compounds were dissolved in acetone and applied to the test units in a volume of 187 l/ha. […] Plants were arranged on a shelf so that the top of the canopy (post-emerge) or top of the soil surface (pre-emerge) was 40-45 cm below the nozzle. Pressurized air was used to force the test solution through the nozzle as it was mechanically advanced (via electrically driven chain drive) over the top of all test plants/pots. This application simulates a typical commercial field herbicide application.
In the post-emerge test, a commercial non-ionic surfactant was also included (0.25% v/v) to enhance wetting of the leaf surfaces Qf target plants at rates ranging from 63 g ai/ha to 1000 g ai/ha. For post-emerge tests, seeds were planted 8-21 days prior to the test to allow emergence and good foliage development prior to application of the test substances. At the time of the post-emerge application, plants of all species were usually at the 2-3 leaf stage of development. Post-emerge test units were always bottom-watered.
At 14 days after application of the test materials, phytotoxicity ratings were recorded. A rating scale of 0-100 was used as previously described in Research Methods in Weed Science, 2nd edition, B. Truelove, Ed., Southern Weed Science Society, Auburn University, Auburn, Ala., 1977. Briefly, “0” corresponds to no damage and “100” corresponds to complete death of all plants in the test unit. This scale was used both to determine efficacy against weed species and damage to crop species. Herbicide activity data for various compounds of this invention, which are shown by compound number in Tables 1-9, are shown in Tables 13 and 14.

[11] = test system: redroot pigweed (Amaranthus retroflexus, AMARE); assay: Pre-emerge greenhouse herbicide test, phytotoxicity rating; conditions: 14 days after application, rating scale 0-100
Outline: (§2)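 Visual 0–100 injury rating (100 = all plants dead) taken 14 days after treatment. Rates of 125–1000 g ai/ha in acetone, 187 l/ha, were sprayed onto soil one day post-sowing; pots were surface-watered to incorporate, then bottom-watered.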

[12] = test system: Johnsongrass (Sorghum halepense, SORHA); assay: as above; conditions: 14 days after application, rating scale 0-100
Outline: as §2

[13] = test system: green foxtail (Setaria viridis, SETVI); assay: as above; conditions: 14 days after application, rating scale 0-100
Outline: as §2

[14] = test system: large crabgrass (Digitaria sanguinalis, DIGSA); assay: as above; conditions: 14 days after application, rating scale 0-100
Outline: as §2

[15] = test system: common ragweed (Ambrosia artemisiifolia L., AMBEL); assay: as above; conditions: 14 days after application, rating scale 0-100
Outline: as §2

[16] = test system: sicklepod (Cassia obtusifolia, CASOB); assay: as above; conditions: 14 days after application, rating scale 0-100
Outline: as §2

[17] = test system: velvetleaf (Abutilon theophrasti, ABUTH); assay: as above; conditions: 14 days after application, rating scale 0-100
Outline: as §2

[18] = test system: barnyardgrass (Echinochloa crusgalli, ECHCG); assay: as above; conditions: 14 days after application, rating scale 0-100
Outline: as §2

[19] = test system: lambsquarters (Chenopodium album, CHEAL); assay: as above; conditions: 14 days after application, rating scale 0-100
Outline: as §2

[20] = test system: ivyleaf morningglory (Ipomoea hederacea, IPOHE); assay: as above; conditions: 14 days after application, rating scale 0-100
Outline: as §2

COc1nc(OC)nc(Oc2cc(-c3nn(C)c(C(F)(F)F)c3Cl)c(F)cc2Cl)n1 [Compound 1-8, 4-chloro-3-(4-chloro-2-fluoro-5-(4,6-dimethoxy-2-triazinyloxy)phenyl)-1-methyl-5-trifluoromethyl-1H-pyrazole]
AMARE phytotoxicity rating (0-100) ([1]; 63 g al/ha): 20
AMARE phytotoxicity rating (0-100) ([1]; 500 g al/ha): 100
SORHA phytotoxicity rating (0-100) ([2]; 63 g al/ha): 0
SORHA phytotoxicity rating (0-100) ([2]; 500 g al/ha): 10
SETVI phytotoxicity rating (0-100) ([3]; 63 g al/ha): 50
SETVI phytotoxicity rating (0-100) ([3]; 500 g al/ha): 20
DIGSA phytotoxicity rating (0-100) ([4]; 63 g al/ha): 0
DIGSA phytotoxicity rating (0-100) ([4]; 500 g al/ha): 20
CASOB phytotoxicity rating (0-100) ([5]; 63 g al/ha): 0
CASOB phytotoxicity rating (0-100) ([5]; 500 g al/ha): 10
ABUTH phytotoxicity rating (0-100) ([6]; 63 g al/ha): 0
ABUTH phytotoxicity rating (0-100) ([6]; 500 g al/ha): 35
ECHCG phytotoxicity rating (0-100) ([7]; 63 g al/ha): 0
ECHCG phytotoxicity rating (0-100) ([7]; 500 g al/ha): 0
CHEAL phytotoxicity rating (0-100) ([8]; 63 g al/ha): 0
CHEAL phytotoxicity rating (0-100) ([8]; 500 g al/ha): 95
IPOHE phytotoxicity rating (0-100) ([9]; 63 g al/ha): 10
IPOHE phytotoxicity rating (0-100) ([9]; 500 g al/ha): 80
AMBEL phytotoxicity rating (0-100) ([10]; 63 g al/ha): 0
AMBEL phytotoxicity rating (0-100) ([10]; 500 g al/ha): 10
phytotoxicity rating AMARE ([11]; 125 g ai/ha): 70
phytotoxicity rating AMARE ([11]; 500 g ai/ha): 100
phytotoxicity rating SORHA ([12]; 125 g ai/ha): 0
phytotoxicity rating SORHA ([12]; 500 g ai/ha): 35
phytotoxicity rating SETVI ([13]; 125 g ai/ha): 50
phytotoxicity rating SETVI ([13]; 500 g ai/ha): 100
phytotoxicity rating DIGSA ([14]; 125 g ai/ha): 20
phytotoxicity rating DIGSA ([14]; 500 g ai/ha): 90
phytotoxicity rating AMBEL ([15]; 125 g ai/ha): 0
phytotoxicity rating AMBEL ([15]; 500 g ai/ha): 10
phytotoxicity rating CASOB ([16]; 125 g ai/ha): 0
phytotoxicity rating CASOB ([16]; 500 g ai/ha): 0
phytotoxicity rating ABUTH ([17]; 125 g ai/ha): 0
phytotoxicity rating ABUTH ([17]; 500 g ai/ha): 20
phytotoxicity rating ECHCG ([18]; 125 g ai/ha): 0
phytotoxicity rating ECHCG ([18]; 500 g ai/ha): 0
phytotoxicity rating CHEAL ([19]; 125 g ai/ha): 0
phytotoxicity rating CHEAL ([19]; 500 g ai/ha): 100
phytotoxicity rating IPOHE ([20]; 125 g ai/ha): 0
phytotoxicity rating IPOHE ([20]; 500 g ai/ha): 0
